# In patent EP0338042B1, “COMPOSITION AND METHOD FOR TREATING HEPATITIS VIRUS INFECTIONS USING 1-(2'-DEOXY-2'-FLUORO-BETA-D-ARABINOFURANOSYL)-5-ETHYLURACIL” (priority 1987, dated 1989):
# Tests used:
# L-1210 = test: Incorporation of 2-14C-labeled nucleoside into DNA of cells; format: cell-based, rodent; details: FEAU also not detectable at 100 μM
# Text: (§1) There was no detectable incorporation of FEAU radioactivity into the DNA of either L-1210 or Vero cell lines, but substantial amounts of FMAU radioactivity were incorporated into the DNA of both cell lines. When HSV-1 infected Vero cells were exposed to ¹⁴C-labeled FEAU and FMAU, both nucleosides incorporated into the DNA of these virus-infected cells.
# [1] = tested on: simian varicella virus (SVV); test: Simian varicella virus infection in the African green monkey
# Vero cells = test: Inhibition of cell growth; format: cell-based, African green monkey; details: Chlorocebus sabaeus, read-out: ED50 FOR INHIBITING CELL GROWTH IN VERO CELLS
# [2] = tested on: woodchuck hepatitis virus (WHV); test: Inhibition of WHV replication in chronically infected woodchucks (DNA polymerase activity); format: in vivo, woodchucks (Marmota monax)
# Protocol: All woodchucks bearing chronic active hepatitis virus (Hantz, supra) were administered FMAU twice daily by interperitoneal injections of FMAU in the following dosages:
# Studies were then undertaken to evaluate FMAU and FEAU in this animal model using woodchucks naturally chronically-infected with woodchuck hepatitis virus (24). It was assumed that these nucleosides would be anabolized to their nucleoside triphosphates within the animal. WHV replication was measured periodically by the endogenous DNA polymerase activity and by the detection of WHV DNA by the dot-blot hybridization assay. Three different dosages of FMAU and FEAU were investigated. FMAU at 2 mg/kg/day x 5, (given intraperitoneally TABLE VIII
# In accordance with the procedures of Example 2, the FEAU inhibition of WHV replication was further studied at different doses administered orally to woodchucks through stomach tubes. Two groups of woodchucks with different initial WHV replication values were examined.
# Seven woodchucks with high WHV replication were tested. High replication was defined as over 1000 counts per minute of DNA polymerase activity, and the mean replication was 1600.
# Seven woodchucks with low WHV replication were tested. Low replication was defined as lower than 1000 counts per minute of DNA polymerase activity, and the mean replication was 600-800.
# P-815 CELLS = test: Inhibition of thymidine incorporation into DNA; format: cell-based, rodent; details: Mus musculus, P815; read-out: ED50 FOR INHIBITING THYMIDINE INCORPORATION INTO DNA, P-815 CELLS
# HSV-1(F) [3] = test: Plaque reduction assay in Vero cells; format: cell-based; details: monkey
# Text: (§2) With FMAU as a lead compound, the syntheses of other 5-alkyl substituted 2′-fluoro-ara-uracils were undertaken (8, 9), including 1-(2′-deoxy-2′-fluoro-beta-D-arabinofuranosyl)-5-ethyluracil [FEAU].
# HSV-2(G) [4] = test: Plaque reduction assay in Vero cells; format: cell-based; details: monkey
# Text: as §2
# HSV-1(F) [5] = details: plaque reduction in Vero cells, cited from earlier work
# VERO = test: Incorporation of 2-14C-labeled nucleoside into DNA of cells; format: cell-based, African green monkey; details: FEAU also not detectable at 100 μM
# Text: as §1
# [6] = tested on: HSV-1 INFECTED VERO CELLS; test: as above; format: cell-based, African green monkey
# Text: as §1
# HSV-2 (STRAIN G) = details: FMAU 0.5 MG/KG/DAY, cited from earlier work
# HSV-2(G) [7] = details: plaque reduction in Vero cells, cited from earlier work
# L-1210 CELLS = test: Inhibition of thymidine incorporation into DNA; format: cell-based, rodent; details: Mus musculus, L1210; read-out: ED50 FOR INHIBITING THYMIDINE INCORPORATION INTO DNA, L-1210 CELLS
# RAT BONE MARROW CELLS = test: Inhibition of thymidine incorporation into DNA; format: cell-based; details: Bone marrow cell, read-out: ED50 FOR INHIBITING THYMIDINE INCORPORATION INTO DNA, RAT BONE MARROW CELLS
# HL-60 CELLS = test: Inhibition of cell growth; format: cell-based; details: Homo sapiens, HL-60; read-out: ED50 FOR INHIBITING CELL GROWTH IN HL-60 CELLS
# [8] = patients with advanced cancer, x 5; cited from earlier work
# [9] = in vivo experiments with mice; cited from earlier work
# [10] = 0.2 mg/kg/day, FMAU x 5, FEAU x 10
smiles,measurement,setting,value
"Cc1cn([C@@H]2O[C@H](CO)[C@@H](O)[C@@H]2F)c(=O)[nH]c1=O [FMAU, 1-(2'-deoxy-2'-fluoro-beta-D-arabinofuranosyl)-5-methyluracil, reference compound]","INCORPORATION INTO DNA AT 10μM, L-1210",L-1210,0.69 p MOLE/10^6 CELLS/HR
same,minimal effective dose,"[1]; Cercopithecine alphaherpesvirus 9, in Primates",~0.04 mg/kg/day
same,potency against SVV compared with FEAU,"[1]; monkey, in vivo",about 40 fold
same,EC50,Vero cells,2.8 µM
same,suppression of viral replication,[2]; [10],equally effective
same,toxicity,[2]; [10],less severe and delayed toxicity
same,WHV DNA polymerase activity,"[2]; 2 mg/kg/day x 5, intraperitoneally",complete suppression
same,toxicity,"[2]; 2 mg/kg/day x 5, intraperitoneally, eventually lethal",severe CNS toxicity
same,persistence of inhibition of WHV replication after cessation of treatment,[2]; i.p. 2 mg/kg per day for 7 days or 4 mg/kg per day for 5 days,20 to 50 days
same,woodchuck hepatitis virus DNA polymerase,"[2]; i.p. twice daily, 2 mg/kg per day for 7 days or 4 mg/kg per day for 5 days, end of one week following dosage administrations",fallen to background levels
same,toxicity (previous results),"[2]; woodchucks, previous results",lethal toxicity
same,EC50,P-815 CELLS,14 µM
same,THER. INDEX ID₅₀/ED₉₀ HSV-1,HSV-1(F) [3],67
same,THER. INDEX ID₅₀/ED₉₀ HSV-2,HSV-2(G) [4],31
same,EC50,HSV-1(F) [5]; read-out: HSV-1(F) ED₅₀,0.01 µM
same,EC90,HSV-1(F) [5]; read-out: HSV-1(F) ED₉₀,0.042 µM
same,neurotoxicity,Toxicity in dogs,very neurotoxic
same,lethal dose,"Toxicity in dogs; FMAU i.v. x 5, FEAU x 10 (preliminary)",2.5 mg/kg/day
same,"INCORPORATION INTO DNA AT 10μM, VERO",VERO,1.3 p MOLE/10^6 CELLS/HR
same,incorporation into HSV-1-infected Vero cells compared with FEAU,[6],seven-fold greater
same,"INCORPORATION INTO DNA AT 10μM, HSV-1 INFECTED VERO CELLS",[6]; [2-14C] labeled nucleoside,3.4 p MOLE/10^6 CELLS/HR
same,MDD,"HSV-2 (STRAIN G); twice a day for 4 days from 5 hr after inoculation, calculated on day 21",9.4
same,% SURVIVORS,HSV-2 (STRAIN G); twice a day for 4 days,67%
same,%WT GAIN ON DAY 7,HSV-2 (STRAIN G); compared to day 1,1%
same,%WT GAIN ON DAY 14,HSV-2 (STRAIN G); compared to day 1,4%
same,%WT GAIN ON DAY 21,HSV-2 (STRAIN G); compared to day 1,5%
same,%WT GAIN ON DAY 30,HSV-2 (STRAIN G); compared to day 1,7%
same,EC50,HSV-2(G) [7]; read-out: HSV-2(G) ED₅₀,0.023 µM
same,EC90,HSV-2(G) [7]; read-out: HSV-2(G) ED₉₀,0.09 µM
same,EC50,L-1210 CELLS,28 µM
same,EC50,RAT BONE MARROW CELLS,8.9 µM
same,EC50,HL-60 CELLS,15.4 µM
same,intravenous dose with dose-limiting CNS toxicity,[8],0.8 mg/kg/day
same,toxicity,[9],relatively nontoxic
